Results taken from patent publication US4882349A, “Pyrrolacetic amides having antiinflammatory activity” (priority 1982, dated 1989).

Assay: solubility
Type: physicochemical

Solubility: soluble in the usual organic solvents
SMILES: CCOC(=O)CNC(=O)Cc1ccc(C(=O)c2ccc(C)cc2)n1C [Compound 1-b, 1-methyl-5-p-toluoylpyrrole-2-acetamidoacetic acid ethyl ester]
